According to patent US20170127673A1, “COMPOSITIONS AND METHODS OF USE OF BETA-HYDROXY-BETA-METHYLBUTYRATE (HMB) AS AN ANIMAL FEED ADDITIVE” (Metabolic Technologies, Inc., priority 2015, published 2017):
Marks after values point to notes of the source that are not given here.

Tests used:
[1] = system: Salmonella enterica subsp. enterica Serovar Enteritidis (ATCC 13076); test: Salmonella enumeration on HMB-coated, inoculated pet food kibbles (Studies 1-3); assay type: cell-based
[2] = healthy young or old adults; cited from earlier work
[3] = system: Salmonella enterica subsp. enterica Serovar Enteritidis (ATCC 13076); test: Overnight enrichment of subsamples to recover damaged Salmonella (presence/absence); assay type: cell-based; details: for Salmonella growth in enriched samples: Study 1, 0.9 and 1.5%
Procedure: Enriched samples were then spread plated to XLD, incubated at 37° C. for 24 h, and growth of black colonies typical for Salmonella were noted (presence/absence result, not quantitative).
From the coated and inoculated samples, 25 g subsamples were collected after the designated number of storage days. The 25 g subsample was mixed with 225 ml of buffered peptone water (BPW; Becton, Dickinson and Company, Franklin Lakes, N.J.) and stomached for 15 seconds to homogenize. The homogenate was serially diluted using BPW and spread plated onto Xylose Lysine Desoxycholate agar (XLD; Becton, Dickinson and Company, Franklin Lakes, N.J.) in duplicate. All inoculated XLD plates were incubated at 37° C. for 24 hours. After incubation, plates were enumerated by counting black colonies, typical for Salmonella. The number of observed colonies was multiplied by the dilution factor to determine the total count in cfu/g. Representative isolates from day 0 were confirmed as Salmonella through serotyping to ensure the recovered counts represent the inoculated culture. Counts for the positive and negative controls were also recorded. In addition, on the first sample date that counts of zero were recovered, the subsample was enriched overnight to allow damaged Salmonella cells to be recovered. Enriched samples were spread plated to XLD, incubated at 37° C. for 24 hours, and growth of black colonies typical for Salmonella were noted (presence/absence result, not quantitative).
Based on the results from enumeration on day 1, 2, 7 and 14, the subsample was retained and enriched to allow damaged cells to be recovered. Enriched samples were spread plated to XLD.

[4] = after HMB is fed; cited from earlier work

Molecule: CC(C)(O)CC(=O)O [HMB, β-hydroxy-β-methylbutyrate]
- Salmonella enumeration (limit of detection) ([1]; Study 1, both treatments (0.9 and 1.5%), day 1): < 100 cfu/g
- Salmonella enumeration (limit of detection) ([1]; Study 1, both treatments (0.9 and 1.5%), day 2, 7 and 14): < 10 cfu/g
- Reduction of Salmonella artificially inoculated to the kibble ([1]; Study 1, coating at 0.9 and 1.5%, 14-day test period): effective
- Side effects [2]: no side effects
- Salmonella growth in enriched samples ([3]; day 1 and 2): positive
- Salmonella growth in enriched samples ([3]; day 7 and 14): negative
- Loss of HMB to urine [4]: 20-50%

Molecule: CC(C)(O)CC(=O)O [HMBFA, β-hydroxy-β-methylbutyric acid]
- Salmonella levels in coated kibbles ([1]; Study 1, 0.9% (w:w) coating, Day 0): 5.59 ± 0.22 log10 CFU/g
- Salmonella levels in coated kibbles ([1]; Study 1, 0.9% (w:w) coating, Day 1, below limit of detection of 100 CFU/g): 0.00 ± 0^b log10 CFU/g
- Salmonella levels in coated kibbles ([1]; Study 1, 0.9% (w:w) coating, Day 2, below limit of detection of 10 CFU/g): 0.00 ± 0^c log10 CFU/g
- Salmonella levels in coated kibbles ([1]; Study 1, 0.9% (w:w) coating, Day 7, below limit of detection of 10 CFU/g): 0.00 ± 0^c log10 CFU/g
- Salmonella levels in coated kibbles ([1]; Study 1, 0.9% (w:w) coating, Day 14, below limit of detection of 10 CFU/g): 0.00 ± 0^c log10 CFU/g
- Time to elimination of Salmonella inoculated onto the kibbles ([1]; Study 1, 0.9 and 1.5% (w:w)): ≤ 24 h
- Salmonella levels in coated kibbles ([1]; Study 1, 1.5% (w:w) coating, Day 0): 4.88 ± 0.19 log10 CFU/g
- Salmonella levels in coated kibbles ([1]; Study 1, 1.5% (w:w) coating, Day 1, below limit of detection of 100 CFU/g): 0.00 ± 0^b log10 CFU/g
- Salmonella levels in coated kibbles ([1]; Study 1, 1.5% (w:w) coating, Day 2, below limit of detection of 10 CFU/g): 0.00 ± 0^c log10 CFU/g
- Salmonella levels in coated kibbles ([1]; Study 1, 1.5% (w:w) coating, Day 7, below limit of detection of 10 CFU/g): 0.00 ± 0^c log10 CFU/g
- Salmonella levels in coated kibbles ([1]; Study 1, 1.5% (w:w) coating, Day 14, below limit of detection of 10 CFU/g): 0.00 ± 0^c log10 CFU/g
- Salmonella levels in coated kibbles ([1]; Study 2, 0.1% (w:w) coating, Day 0): 5.61±0.19 log10 CFU/g
- Salmonella levels in coated kibbles ([1]; Study 2, 0.1% (w:w) coating, Day 1): 3.50 ± 0.12 log10 CFU/g
- Salmonella levels in coated kibbles ([1]; Study 2, 0.1% (w:w) coating, Day 2): 2.62 ± 0.26 log10 CFU/g
- Salmonella levels in coated kibbles ([1]; Study 2, 0.1% (w:w) coating, Day 7): 0.87 ± 0.47 log10 CFU/g
- Salmonella levels in coated kibbles ([1]; Study 2, 0.1% (w:w) coating, Day 14, below limit of detection of 10 CFU/g): 0.00 ± 0^b log10 CFU/g
- Salmonella levels in coated kibbles ([1]; Study 2, 0.3% (w:w) coating, Day 0): 5.62±0.06 log10 CFU/g
- Salmonella levels in coated kibbles ([1]; Study 2, 0.3% (w:w) coating, Day 1): 2.85 ± 0.16 log10 CFU/g
- Salmonella levels in coated kibbles ([1]; Study 2, 0.3% (w:w) coating, Day 2): 1.63 ± 0.32 log10 CFU/g
- Salmonella levels in coated kibbles ([1]; Study 2, 0.3% (w:w) coating, Day 7): 0.67 ± 0.33 log10 CFU/g
- Salmonella levels in coated kibbles ([1]; Study 2, 0.3% (w:w) coating, Day 14, below limit of detection of 10 CFU/g): 0.00 ± 0^b log10 CFU/g
- Salmonella levels in coated kibbles ([1]; Study 2, 0.5% (w:w) coating, Day 0): 5.60±0.26 log10 CFU/g
- Salmonella levels in coated kibbles ([1]; Study 2, 0.5% (w:w) coating, Day 1): 2.09 ± 0.28 log10 CFU/g
- Salmonella levels in coated kibbles ([1]; Study 2, 0.5% (w:w) coating, Day 2): 0.93 ± 0.52 log10 CFU/g
- Salmonella levels in coated kibbles ([1]; Study 2, 0.5% (w:w) coating, Day 7, below limit of detection of 10 CFU/g): 0.00 ± 0^b log10 CFU/g
- Salmonella levels in coated kibbles ([1]; Study 2, 0.5% (w:w) coating, Day 14, below limit of detection of 10 CFU/g): 0.00 ± 0^b log10 CFU/g
- Salmonella enumeration (limit of detection) ([1]; Study 2, 0.5% treatment, days 2, 7 and 14): < 10 CFU/g
- Lowest coating level effective in eliminating the Salmonella inoculum ([1]; Study 2, by day 14): around 0.1 % (w:w)
- Salmonella enumeration (limit of detection) ([1]; Study 2, day 14 across all treatments): < 10 CFU/g
- Salmonella growth in enriched subsamples ([3]; Study 2, treatment levels below limit of detection on enumeration days 2, 7 and 14): positive

Molecule: calcium β-hydroxy-β-methylbutyrate [CaHMB]
- Salmonella levels in coated kibbles ([1]; Study 3, 0.1% (w:w) powder coating, Day 0): 7.19±0.04 log10 CFU/g
- Salmonella levels in coated kibbles ([1]; Study 3, 0.1% (w:w) powder coating, Day 1): 7.11 ± 0.08 log10 CFU/g
- Salmonella levels in coated kibbles ([1]; Study 3, 0.1% (w:w) powder coating, Day 2): 6.84 ± 0.17 log10 CFU/g
- Salmonella levels in coated kibbles ([1]; Study 3, 0.1% (w:w) powder coating, Day 7): 3.18 ± 0.03^ log10 CFU/g
- Salmonella levels in coated kibbles ([1]; Study 3, 0.1% (w:w) powder coating, Day 14, below limit of detection of 10 CFU/g): 0 ± 0^b log10 CFU/g
- Salmonella levels in coated kibbles ([1]; Study 3, 0.3% (w:w) powder coating, Day 0): 7.17±0.07 log10 CFU/g
- Salmonella levels in coated kibbles ([1]; Study 3, 0.3% (w:w) powder coating, Day 1): 7.01 ± 0.07 log10 CFU/g
- Salmonella levels in coated kibbles ([1]; Study 3, 0.3% (w:w) powder coating, Day 2): 6.26 ± 0.03 log10 CFU/g
- Salmonella levels in coated kibbles ([1]; Study 3, 0.3% (w:w) powder coating, Day 7): 3.17 ± 0.04^ log10 CFU/g
- Salmonella levels in coated kibbles ([1]; Study 3, 0.3% (w:w) powder coating, Day 14, below limit of detection of 10 CFU/g): 0 ± 0^b log10 CFU/g
- Salmonella levels in coated kibbles ([1]; Study 3, 0.5% (w:w) powder coating, Day 0): 7.09±0.04 log10 CFU/g
- Salmonella levels in coated kibbles ([1]; Study 3, 0.5% (w:w) powder coating, Day 1): 6.15 ± 0.11 log10 CFU/g
- Salmonella levels in coated kibbles ([1]; Study 3, 0.5% (w:w) powder coating, Day 2): 5.87 ± 0.20 log10 CFU/g
- Salmonella levels in coated kibbles ([1]; Study 3, 0.5% (w:w) powder coating, Day 7, below limit of detection of 10 CFU/g): 0 ± 0^b log10 CFU/g
- Salmonella levels in coated kibbles ([1]; Study 3, 0.5% (w:w) powder coating, Day 14, below limit of detection of 10 CFU/g): 0 ± 0^b log10 CFU/g
- Salmonella enumeration counts ([1]; Study 3, 0.5, 0.9 and 1.5% coated kibbles, day 7): below the limit of detection
- Salmonella levels in coated kibbles ([1]; Study 3, 0.9% (w:w) powder coating, Day 0): 7.08±0.12 log10 CFU/g
- Salmonella levels in coated kibbles ([1]; Study 3, 0.9% (w:w) powder coating, Day 1): 6.27 ± 0.06 log10 CFU/g
- Salmonella levels in coated kibbles ([1]; Study 3, 0.9% (w:w) powder coating, Day 2): 6.03 ± 0.05 log10 CFU/g
- Salmonella levels in coated kibbles ([1]; Study 3, 0.9% (w:w) powder coating, Day 7, below limit of detection of 10 CFU/g): 0 ± 0^b log10 CFU/g
- Salmonella levels in coated kibbles ([1]; Study 3, 0.9% (w:w) powder coating, Day 14, below limit of detection of 10 CFU/g): 0 ± 0^b log10 CFU/g
- Salmonella levels in coated kibbles ([1]; Study 3, 1.5% (w:w) powder coating, Day 0): 7.04±0.13 log10 CFU/g
- Salmonella levels in coated kibbles ([1]; Study 3, 1.5% (w:w) powder coating, Day 1): 6.24 ± 0.07 log10 CFU/g
- Salmonella levels in coated kibbles ([1]; Study 3, 1.5% (w:w) powder coating, Day 2): 5.87 ± 0.09 log10 CFU/g
- Salmonella levels in coated kibbles ([1]; Study 3, 1.5% (w:w) powder coating, Day 7, below limit of detection of 10 CFU/g): 0 ± 0^b log10 CFU/g
- Salmonella levels in coated kibbles ([1]; Study 3, 1.5% (w:w) powder coating, Day 14, below limit of detection of 10 CFU/g): 0 ± 0^b log10 CFU/g
- Salmonella enumeration counts (limit of detection) ([1]; Study 3, all treated kibbles, day 14): < 10 CFU/g
- Attenuation of Salmonella on kibbles ([1]; Study 3, powdered form, lower levels eliminating after 14 days, higher levels during first week): very effective
- Salmonella growth in enriched subsamples ([3]; Study 3, days 7 and 14 for 0.5, 0.9, 1.5%, day 14 for 0.1 and 0.3%): no Salmonella growth
